Assay results as given in PubChem BioAssay AID1963865 (Molecular Pharmacology Branch, DTP, NCI, 2024).
pIC50: −log10 of the molar value.

Test system: KRAS PDC multicell spheroid viability
Assay: Anticancer human tumor 825966-067-R-J1-PDC patient-derived colon carcinoma cell line growth inhibition [KRAS2]
Settings: for pIC50: curve of first compound; for viability, T/C: stronger effect = lower value
Procedure, shortened: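 Combination screen of spheroid viability in tumor-cell co-cultures with endothelial (HUVEC) and mesenchymal stem cell stroma. Each agent was tested in half-log dilutions, topping at clinical Cmax or at 10 microM without a known Cmax.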

[1] = second compound 0.1 µM, first compound 0.0316 µM
[2] = second compound 0.1 µM, first compound 0.1 µM
[3] = second compound 0.1 µM, first compound 0.316 µM
[4] = second compound 0.1 µM, first compound 1 µM
[5] = second compound 0.1 µM, first compound 3.16 µM
[6] = second compound 0.1 µM, first compound 10 µM
[7] = second compound 0.316 µM, first compound 0.0316 µM
[8] = second compound 0.316 µM, first compound 0.1 µM
[9] = second compound 0.316 µM, first compound 0.316 µM
[10] = second compound 0.316 µM, first compound 1 µM
[11] = second compound 0.316 µM, first compound 3.16 µM
[12] = second compound 0.316 µM, first compound 10 µM
[13] = second compound 1 µM, first compound 0.0316 µM
[14] = second compound 1 µM, first compound 0.1 µM
[15] = second compound 1 µM, first compound 0.316 µM
[16] = second compound 1 µM, first compound 1 µM
[17] = second compound 1 µM, first compound 3.16 µM
[18] = second compound 1 µM, first compound 10 µM
[19] = second compound 3.16 µM, first compound 0.0316 µM
[20] = second compound 3.16 µM, first compound 0.1 µM
[21] = second compound 3.16 µM, first compound 0.316 µM
[22] = second compound 3.16 µM, first compound 1 µM
[23] = second compound 3.16 µM, first compound 3.16 µM
[24] = second compound 3.16 µM, first compound 10 µM
[25] = second compound 10 µM, first compound 0.0316 µM
[26] = second compound 10 µM, first compound 0.1 µM
[27] = second compound 10 µM, first compound 0.316 µM
[28] = second compound 10 µM, first compound 1 µM
[29] = second compound 10 µM, first compound 3.16 µM
[30] = second compound 10 µM, first compound 10 µM
[31] = second compound 0.1 µM, first compound 0.000316 µM
[32] = second compound 0.1 µM, first compound 0.001 µM
[33] = second compound 0.1 µM, first compound 0.00316 µM
[34] = second compound 0.1 µM, first compound 0.01 µM
[35] = second compound 0.316 µM, first compound 0.000316 µM
[36] = second compound 0.316 µM, first compound 0.001 µM
[37] = second compound 0.316 µM, first compound 0.00316 µM
[38] = second compound 0.316 µM, first compound 0.01 µM
[39] = second compound 1 µM, first compound 0.000316 µM
[40] = second compound 1 µM, first compound 0.001 µM
[41] = second compound 1 µM, first compound 0.00316 µM
[42] = second compound 1 µM, first compound 0.01 µM
[43] = second compound 3.16 µM, first compound 0.000316 µM
[44] = second compound 3.16 µM, first compound 0.001 µM
[45] = second compound 3.16 µM, first compound 0.00316 µM
[46] = second compound 3.16 µM, first compound 0.01 µM
[47] = second compound 10 µM, first compound 0.000316 µM
[48] = second compound 10 µM, first compound 0.001 µM
[49] = second compound 10 µM, first compound 0.00316 µM
[50] = second compound 10 µM, first compound 0.01 µM
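Also: spheroids exposed to compounds for 7 days.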
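For viability, T/C in this document: 100% = DMSO vehicle control viability.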

Row | Structure (SMILES) | pIC50 (second compound 0.1 µM) | pIC50 (second compound 0.316 µM) | pIC50 (second compound 1 µM) | pIC50 (second compound 3.16 µM) | pIC50 (second compound 10 µM) | viability, T/C [1] [%] | viability, T/C [2] [%] | viability, T/C [3] [%] | viability, T/C [4] [%] | viability, T/C [5] [%] | viability, T/C [6] [%] | viability, T/C [7] [%] | viability, T/C [8] [%] | viability, T/C [9] [%] | viability, T/C [13] [%] | viability, T/C [14] [%] | viability, T/C [19] [%] | viability, T/C [20] [%] | viability, T/C [25] [%] | viability, T/C [26] [%] | other results
1 | CC(C)NCC(C(=O)N1CCN(c2ncnc3c2C(C)CC3O)CC1)c1ccc(Cl)cc1 (stereo not given) + COc1cc2nc(C)nc(NC(C)c3cc(N)cc(C(F)(F)F)c3)c2cc1OC1CCOC1 | 5.60 | 5.61 | 5.76 | 5.73 | > 7.50 | 122 | 113 | 148 | 97.1 | 39.4 | 11.2 | 103 | 129 | 122 | 114 | 128 | 111 | 125 | 22.4 | 5.84 | viability, T/C [10]: 130%; viability, T/C [11]: 29.7%; viability, T/C [12]: 8.59%; viability, T/C [15]: 151%; viability, T/C [16]: 75.7%; viability, T/C [17]: 37.4%; viability, T/C [18]: 7.58%; viability, T/C [21]: 104%; viability, T/C [22]: 97.7%; viability, T/C [23]: 10.9%; viability, T/C [24]: 5.94%; viability, T/C [27]: 3.69%; viability, T/C [28]: 1.56%; viability, T/C [29]: 2.14%; viability, T/C [30]: 3.53%
2 | CC(C)n1nc(-c2ccc3oc(N)nc3c2)c2c(N)ncnc21 + COc1cc2nc(C)nc(NC(C)c3cc(N)cc(C(F)(F)F)c3)c2cc1OC1CCOC1 | < 7.00 | < 7.00 | < 7.00 | < 7.00 | > 9.50 | 79 | 99.4 |  |  |  |  | 84 | 81.7 |  | 82.8 | 75.2 | 82.2 | 81.5 | 11.2 | 3.11 | viability, T/C [31]: 59.7%; viability, T/C [32]: 93.1%; viability, T/C [33]: 125%; viability, T/C [34]: 154%; viability, T/C [35]: 97.1%; viability, T/C [36]: 99%; viability, T/C [37]: 116%; viability, T/C [38]: 137%; viability, T/C [39]: 100%; viability, T/C [40]: 103%; viability, T/C [41]: 123%; viability, T/C [42]: 131%; viability, T/C [43]: 115%; viability, T/C [44]: 109%; viability, T/C [45]: 121%; viability, T/C [46]: 63.7%; viability, T/C [47]: 6.15%; viability, T/C [48]: 2.53%; viability, T/C [49]: 15.6%; viability, T/C [50]: 12.3%
3 | CC1(C)CCC(CN2CCN(c3ccc(C(=O)NS(=O)(=O)c4ccc(NCC5CCOCC5)c([N+](=O)[O-])c4)c(Oc4cnc5[nH]ccc5c4)c3)CC2)=C(c2ccc(Cl)cc2)C1 + COc1cc2nc(C)nc(NC(C)c3cc(N)cc(C(F)(F)F)c3)c2cc1OC1CCOC1 | 5.68 | 5.71 | 5.70 | 5.66 | 7.50 | 94.7 | 86.3 | 107 | 111 | 21.4 | 5.44 | 99.2 | 94.8 | 90.6 | 118 | 96 | 139 | 119 | 14.3 | 48.2 | viability, T/C [10]: 91.5%; viability, T/C [11]: 19.7%; viability, T/C [12]: 6.45%; viability, T/C [15]: 114%; viability, T/C [16]: 106%; viability, T/C [17]: 12.3%; viability, T/C [18]: 3.36%; viability, T/C [21]: 130%; viability, T/C [22]: 180%; viability, T/C [23]: 8.21%; viability, T/C [24]: 3.86%; viability, T/C [27]: 68.2%; viability, T/C [28]: 59.6%; viability, T/C [29]: 1.84%; viability, T/C [30]: 0.72%
4 | Cn1ncnc1[C@H]1c2n[nH]c(=O)c3cc(F)cc(c23)N[C@@H]1c1ccc(F)cc1 + COc1cc2nc(C)nc(NC(C)c3cc(N)cc(C(F)(F)F)c3)c2cc1OC1CCOC1 | < 7.00 | < 7.00 | < 7.00 | < 7.00 | > 9.50 | 83.9 | 70.9 |  |  |  |  | 65.3 | 64.4 |  | 84.2 | 92.1 | 105 | 89.3 | 11.8 | 7.86 | viability, T/C [31]: 92.2%; viability, T/C [32]: 89.3%; viability, T/C [33]: 90.6%; viability, T/C [34]: 76.7%; viability, T/C [35]: 86.3%; viability, T/C [36]: 94.4%; viability, T/C [37]: 82.4%; viability, T/C [38]: 101%; viability, T/C [39]: 86.3%; viability, T/C [40]: 99.4%; viability, T/C [41]: 107%; viability, T/C [42]: 79.2%; viability, T/C [43]: 116%; viability, T/C [44]: 103%; viability, T/C [45]: 114%; viability, T/C [46]: 94.7%; viability, T/C [47]: 11.3%; viability, T/C [48]: 10.4%; viability, T/C [49]: 17.1%; viability, T/C [50]: 21.1%
